Data on 2 substances can be found in paper PMC6739215, “One-bead one-compound combinatorial library derived targeting ligands for detection and treatment of oral squamous cancer” (Oncotarget, 2019).

Entries after “also recorded” stand apart in the source; their conditions may differ. Like-named read-outs stand apart in the source and are kept apart here.

The subject of series [1] is human oral cancer cells HSC-3. The experiment in a line: Flow cytometry study of binding affinity of ligands. The conditions noted are these: HSC-3 cells; for Kd: biotinylated peptide followed by streptavidin-PE. The method, then:
Flow cytometry was employed to compare the binging affinity of LLY12 and LLY13 [25–27]. Confluent tumor cells (80–90%) were dissociated with 0.05% trypsin-EDTA and neutralized with culture medium. After washed three times with F10 buffer, containing PBS with 10% FBS and 1 mM MnCl2 , the human oral cancer cells HSC-3 (3 × 10^5) were added with different concentration of biotinylated LLY12 and LLY13 in 50 μL F10 media for 30 minutes on ice. Then each sample was washed three times with 1 mL PBS containing 1% FBS. Samples thereafter were incubated with a 1:500 dilution of streptavidin-phycoerythrin (1 mg/mL) for 30 min on ice followed by a single wash with 1 mL of PBS containing 1% FBS. Finally, the samples in PBS were analyzed by flow cytometry and the mean fluorescence intensity (MFI) was acquired for each individual sample.
Background: Flow cytometry measures light scatter and fluorescence of single cells or particles in a stream.

In series [2] the test system is HSC-3 cells and MOK-101 cells. The series can be described thus: Peptide induced cell uptake assay (confocal). In kind it is cell-based, human. The following applies: HSC-3 and MOK-101 cells, up to 3 hours, cytoplasm and nucleus. Here is the method:
Peptide induced cell uptake assay was used to investigate endocytic uptake of the targeting peptide by live OSC cells. Biotinylated LLY13 was pre-incubated (50 μM) with streptavidin-Alexa488 (1mg/mL) for 2 hours at room temperature and then at 4° C overnight to form the biotin-peptides/streptavidin-Alexa488 complex. Oral cancer cells of HSC-3 cells and MOK-101 were seeded in chamber slides at a concentration of 2.3 × 10^4 cells. After 60% confluency, biotin-peptides-streptavidin-Alexa488 complexes were added at different time intervals (30 min, one hour, two hours and three hours). By the end of experiments, 1:2000 dilution of DAPI was added to the specimens. Peptide induced endocytic uptake of cancer cells was observed under confocal laser scanning microscope.

Series [3] has as its system normal human keratinocyte (NHK) cells. The experiment in a line: MTS assay evaluation of cytotoxicity. In kind it is cell-based. The following applies: 48 hours treatment, up to 50 μM. Here is the method: MTS assay was used to evaluate the potential cytotoxicity of peptides against normal human keratinocytes. Briefly, 2 × 10^3 NHK cells were seeded in 96 well tissue culture plates and analysis was performed 48 hours after treatment with LLY12 and LLY13 by adding 20 μL per well of the tetrazolium salt MTS, 3-(4,5-dimethylthiazol-2-yl)-5-(3-carboxymethoxyphenyl)-2-(4-sulfophenyl)-2H-tetrazolium for 2 hours at 37° C. The 96 well plates were read on a VERSA max tunable microplate reader at 490 nm. Similar to the MTT assay, the reduction of MTS solutions to formazan reflects mitochondrial activity and cell viability by proxy.
A general note: Formazan colour is commonly taken as a measure of viable cells.

Usually Kd stands for the equilibrium constant for the complex coming apart. Take cyclic cdG (Nle) G(Hyp) Lc [LLY12]: in series [1] (read-out: Kd value), the Kd came to 0.87 µM. The “Bmax value (maximum binding capacity)” value in series [1] (flow cytometry) is reported as 248. In addition, in series [1] (flow cytometry, Figure 4), the “Bmax (maximum binding)” value worked out at 248 AU. Besides, the “cellular uptake (internalization) by live OSC cells” value in series [2] is listed as “not observed”. Further, the “cytotoxicity (MTS assay)” value in series [3] is “no obvious cytotoxicity; also recorded: not cytotoxic”.
As to cyclic cdGYG (Hyp) Wc [LLY13], the Kd in series [1] (Figure 4, read-out: Kd) was 1.23 µM. Moreover, the dissociation constant (Kd) in series [1] (read-out: Kd value) worked out at 1.27 µM. Besides, in series [1] (flow cytometry), the “Bmax value (maximum binding capacity)” value stood at 764 and the “maximum binding capacity in comparison to LLY12” value is given as “around 3 fold”. For the same substance, the “Bmax (maximum binding)” value in series [1] (flow cytometry, Figure 4) was 764 AU. Further, the “cytotoxicity (MTS assay)” value in series [3] is on record as “no obvious cytotoxicity; also recorded: not cytotoxic”.
